Source: patent US12492223B2, “Peptide compositions capable of binding lanthionine synthetase C-like protein (LanCl) and uses thereof” (priority 2021, dated 2025)
Positions of bridges follow the written chain, without caps; N, C: chain ends. Residues, ends and D or L forms follow the SMILES beside them. No end group written: not given here.

Experiments:
[1] = system: A549 cells; assay: A549 proliferation + stress assay (restoration of viability of Taxol-treated cells, CellTiter-Glo); type: cell-based, human
Method: An assay was developed that involves stressing cells with a dose of the chemotherapeutic agent, Taxol, that causes a 50% inhibition of cell viability when compared to untreated cells. Peptides were then added to the cell cultures at increasing concentrations to assess their ability to restore the viability of the Taxol-treated cells.
Briefly, A549 cells were cultured in opaque-walled multiwell plates with 50000 A549 cells/well in culture medium (DMEM medium ref 11960-044 Thermoscientific, +10% FBS ref 10270-106 Gibco, Thermoscientific, +1% Na pyruvate ref S8636-100 ML, Sigma, +1%, Glutamax ref35050061, Thermoscientific, +1% Penicillin-Streptomycin, ref 11074440001, Sigma) 100 μl per well for 96-well plates. Control wells containing medium without cells were used to obtain a value for background luminescence. Cells were incubated at 37° C. in 5% CO2 overnight.
100 μL of medium+DMSO+peptides or medium+Taxol+peptides (at the different concentrations) were added to each well and incubated for 16 hours at 37° C. 5% CO2.
Cell morphology, viability and confluency were assessed by phase contrast microscopy. The CellTiter-Glo® Luminescent Cell Viability Assay (G7571, Promega—a homogeneous method to determine the number of viable cells in culture based on quantitation of the ATP present) was then used to quantify the number of metabolically active cells, according to the manufacturer's instructions. 100 μl volume of CellTiter-Glo® Reagent was added to the 100 μL volume of cell culture medium present in each well, Contents were mixed for 2 minutes on an orbital shaker to induce cell lysis and after incubating the plates at room temperature for 10 minutes to stabilize luminescent signal luminescence was recorded with an integration time of 0.5 seconds using a CLARIOstar multi well luminometer (BMG Labtech)

[2] = system: Chung rats; assay: In vivo model of neuropathic pain (Chung model, Example 4); design: species or system rat; settings: oral, subcutaneous and/or intramuscular administration
Text: This study was undertaken to assess the analgesic effect of the peptides described herein on neuropathic pain in vivo using a nerve constriction model in Chung rats. Briefly, adult male Sprague-Dawley rats, 8-9 weeks old, weighing 220-250 g at the time of surgery, were purchased from Charles River UK Ltd.
The animals were housed in groups of 4 in an air-conditioned room on a 12-hour light/dark cycle. Food and water were available ad libitum. They were allowed to acclimatise to the experimental environment for three days by leaving them on a raised metal mesh for at least 40 min. The baseline paw withdrawal threshold (PWT) was examined using a series of graduated von Frey hairs for 3 consecutive days before surgery and re-assessed on the 6th to 8th day after surgery and on the 12th to 14th day after surgery before drug dosing.
Each rat was anaesthetized with 5% isoflurane mixed with oxygen (2 L per min) followed by an intramuscular (i.m.) injection of ketamine 90 mg/kg plus xylazine 10 mg/kg. The back was shaved and sterilized with povidone-iodine. The animal was placed in a prone position and a para-medial incision was made on the skin covering the L4-6 level. The L5 spinal nerve was carefully isolated and tightly ligated with 6/0 silk suture. The wound was then closed in layers after a complete hemostasis. A single dose of antibiotics (Amoxipen, 15 mg/rat, i.p.) was routinely given for prevention of infection after surgery. The animals were placed in a temperature-controlled recovery chamber until fully awake before being returned to their home cages.
The vehicle (1% DMSO in PBS) or peptide was administrated intramuscularly (i.m.) into the leg of the side contralateral to the site of injury. Dosing was carried out by a second experimenter. […]
Each group had 8 animals. […] The lowest amount of force required to induce reliable responses (positive in 3 out of 5 trials) was recorded as the value of PWT.
The drug test was carried out on the 12th to 14th day after surgery. PWT were assessed before, 1, 2 and 4 hours following drug or vehicle administration. […]

[3] = molecular target: recombinant LanCL1 (rLanCL1) (Homo sapiens, UniProt O43813); assay: biochemical; type: binding
Sequence of recombinant LanCL1 (rLanCL1) (O43813 whole entry, species assumed): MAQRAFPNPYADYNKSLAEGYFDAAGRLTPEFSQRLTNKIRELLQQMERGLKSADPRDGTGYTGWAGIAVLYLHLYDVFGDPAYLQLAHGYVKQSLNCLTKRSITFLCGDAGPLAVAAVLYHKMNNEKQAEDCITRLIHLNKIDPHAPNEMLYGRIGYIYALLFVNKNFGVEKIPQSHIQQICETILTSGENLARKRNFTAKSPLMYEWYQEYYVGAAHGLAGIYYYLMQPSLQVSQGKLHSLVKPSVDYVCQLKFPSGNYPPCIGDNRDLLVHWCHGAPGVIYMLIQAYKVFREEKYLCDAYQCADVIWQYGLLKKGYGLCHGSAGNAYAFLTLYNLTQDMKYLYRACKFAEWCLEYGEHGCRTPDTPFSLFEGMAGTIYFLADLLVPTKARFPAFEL
Method: Dry pellets of LANCL1 previously photolabelled with photoprobes in the presence of different peptides or PBS/DMSO vehicle were resuspended in 30 μL SDS loading buffer (Bio Rad's XT Sample Buffer containing 2.5% v/v 2-mercaptoethanol) and heated (60° C., 30 min). Proteins were resolved using SDS-PAGE (4-15% Criterion™ TGX Stain-Free™ Protein Gel, Bio Rad) and analyzed by in-gel fluorescence scanning using a ChemiDoc™ MP Imaging System (Bio Rad) with a green LED light as an excitation source and a BP600/20 nm emission filter. After in-gel fluorescence scanning, gels were stained with Coomassie blue to ensure the same amount of protein sample was loaded in each lane and imaged with the ChemiDoc™ MP Imaging System. Photoincorporation of each photoprobe in LANCL1 was quantitatively assessed by measuring the fluorescent intensity of the corresponding gel band using Image lab software (Bio Rad) and normalizing this value against the intensity value of LANCL1 gel band stained with Coomassie blue to control for loading differences.
(SEQ ID NO:22) from recombinant LanCL1 (rLanCL1).

[4] = system: HKx31 (H3N2); type: in vivo, mice; design: key to PMN activity score / Viral titre activity score / BAL IL-6 activity score: 0: inactive; 1: less active than the peptide of SEQ ID NO:38; 2: comparable or more active than the peptide of SEQ ID NO:38

Compound	Estimated Activity in A549 proliferation + stress assay ([1]; 350 μM Taxol, 16 hours, peptide 1-100 μM)	restoration of A549 viability ([1]; Taxol-treated A549 cells)	neuropathic pain in the Chung model [2]	EC50 [3]	PMN activity score ([4]; mouse, in vivo, 10 mg/kg)	reducing the PMN infiltrate in BAL fluid, compared with the peptide of SEQ ID NO:38 ([4]; single 10 mg/kg dose)
10 (SCRSRPVESSC; disulfide 2-11) [compound 10]	STRONG (clear dose-dependent restoration of cell viability from 1-5 μM upwards)	restore A549 viability	reduced neuropathic pain	–	–	–
CC(C)[C@@H]1NC(=O)[C@H](CO)NC(=O)[C@H](CCCNC(=N)N)NC(=O)[C@@H](N)CSSC[C@@H](C(=O)NCC(=O)O)NC(=O)[C@H](CO)NC(=O)CNC(=O)[C@H](CCC(=O)O)NC1=O [compound 3] (H-CRSVEGSCG-OH; disulfide 1-8; N-terminus and C-terminus assumed)	–	–	reduced neuropathic pain	~150 µM	–	–
2 (CRSVEGSCGF; disulfide 1-8) [compound 2]	–	–	reduced neuropathic pain	–	2	as effective
